What all share (format): cell-based, Rat
Test [1] deals with NADPH oxidase (p22-phox, gp91-phox, p47-phox) mRNA. Description: RT-PCR of NADPH oxidase subunit mRNA. On the procedure:
RT-PCR experiments were performed to confirm the BDNF-sensitive genes derived from cDNA expression microarray, cytochrome b558 as it constitutes p22-phox and gp91-phox subunits of NADPH oxidase, a pro-oxidant enzyme generating superoxide from oxygen.
Total RNA (1 μg each) was incubated in a reaction mixture containing dNTP (2.5 mM each), RNasin (0.5 Unit), oligo dT primer (100 ng), and MMLV reverse transcriptase (200 Unit) at 37° C. for 1 hr. The samples were incubated at 92° C. for 10 min and transferred to 4° C. The reverse transcribed cDNA was subjected to PCR amplification. PCR was performed according to manufacturer's procedure (Takara Shuzo Co., Japan) sequentially (denaturation-annealing-extension) at following conditions: for p47-phox, 94° C. for 30 S, 55° C. for 30 S, and 72° C. for 60 S (28 cycles); for p22-phox (homologous to cytochrome b558 in microarray) and gp91-phox, 94° C. for 45 S, 60° C. for 60 S, and 72° C. for 120 S (33 cycles); for GAPDH, 94° C. for 35 S, 55° C. for 45 S, and 72° C. for 90 S (25 cycles). Primer sequences used were as follows (5′-3′): for p22-phox, […] (forward) and […] (reverse); for p47-phox, CAGCCA […] (forward) and […] (reverse); for gp91-phox, […] TG (forward) and […] (reverse); for GAPDH, […] (forward) and […] (reverse). PCR products were run on a 1.2% agarose gel and visualized with ethidium bromide. The relative amount of mRNA was measured using LAS-1000 systems (Fuji Photofilm Co., Japan), normalized to levels of GAPDH mRNA. DNA sequencing was performed with Big Dye Terminator Chemistry from Perkin-Elmer Applied Biosystems on ABI PRISM™ 377 DNA sequencer (Foster City, Calif.)

Test [2] deals with NADPH oxidase activation (p47-phox, p67-phox). Description: Subcellular fractionation and western blot, translocation of p47-phox and p67-phox. As to conditions: exposed for 16-32 hr. How it is done: Activation of NADPH oxidase involves translocation of the cytosolic p47-phox and p67-phox subunits into the plasma membrane (Clark et al., 1989, Trans. Assoc. Am. Physicians., 102, 224-230). We examined if treatment with BDNF would activate NADPH oxidase through isolating the cytosol and membrane fraction.
Cortical cell cultures were washed with ice-cold PBS and resuspended in an isotonic buffer containing 10 mM HEPES, pH 8.0, 250 mM sucrose, 1 mM EDTA, 1 mM EGTA, 1 mM dithiothreitol (DTT), 2 mM PMSF, 100 μg/ml leupeptin, and 10 μg/ml pepstatin A. For isolating the cytosol and membrane fraction, the lysate was homogenized with a homogenizer (KONTE, Vieland, N.J.), centrifuged at 9,000 g for 10 min, and the supernatant was then centrifuged at 100,000 g for 1 hr.
The membrane fraction was obtained by resuspending the pellet with 50 μl lysis buffer and the cytosolic fraction was obtained from the supernatant. As shown in <EXAMPLE 7-4>, western blot experiments were performed to analyze protein levels of NADPH oxidase subunits using available antibodies for gp91-phox, p47-phox, and p67-phox.

A further test deals with ROS in cortical neurons. Description: ROS imaging by oxidized DCDHF-DA (DCF) and hydroethidine fluorescence. On the procedure:
Cortical cell cultures (DIV 12-15) grown on glass bottom dishes were loaded with 10 μM dichlorodihydro fluorescein diacetate (DCDHF-DA) or 5 μM hydroethidium (Molecular Probes, Eugene, Oreg.) plus 2% Pluronic F-127 in HEPES-buffered control salt solution (HCSS) buffer containing (in mM): 120 NaCl, 5 KCl, 1.6 MgCl2, 2.3 CaCl2, 15 glucose, 20 HEPES, and 10 NaOH. Cultures were incubated for 20 min at 37° C., and washed three times with HCSS buffer. […] The fluorescence images were analyzed using a QuantiCell 700 system (Applied imaging, UK).
Superoxide production through activation of NADPH oxidase was analyzed by measuring the oxidation of HEt and DCDHF to ethidium and DCF, respectively, in cortical neurons after exposure to a sham operation, 100 ng/ml BDNF, or 100 ng/ml BDNF plus 3 nM DPI for 32 hr (FIG. 15).

The test system of test [3] is Neuron-rich cortical cell cultures. Description: Serum deprivation-induced neuronal apoptosis, counting viable neurons. On the procedure:
For neuron-glia mixed cultures, 10 μM cytosine arabinoside (Ara C) was included to stop the overgrowth of non-neuronal cells to cultures at DIV 5-7 when glial cells were confluent underneath neurons. After 2 days, cultures were then fed with plating medium lacking fetal serum twice a week. Cultures were maintained at 37° C. in a humidified 5% CO2 incubator. For neuron-rich cultures (>95%), 2.5 μM Ara C was included to cultures at 2-3 days in vitro (DIV 2-3) as previously described (Gwag et al., 1997).
Mixed cortical cell cultures (DIV 12-14) were rinsed in serum free MS (MEM supplemented with 26.5 mM sodium bicarbonate and 21 mM glucose) and then exposed to various concentrations of NGF, BDNF or NT-3 in serum free MS. Neuronal cell death was analyzed by measuring the level of lactate dehydrogenase (LDH) released into the bathing medium. The percent neuronal death was normalized to the mean LDH value released after a sham control (defined as 0%) or continuous exposure to 500 μM NMDA for 24 hr (defined as 100%) The latter produces complete neuronal death within 24 hr. For experiments for serum deprivation, neuron-rich cortical cell cultures (DIV 7) were placed into serum free MS containing 1 μM MK-801 as described (Gwag et al., 1995). Neuronal death was analyzed 24 and 48 hr later by counting viable neurons excluding Trypan Blue satained.
Neuron-rich cortical cell cultures (DIV 7) were deprived of serum, alone (serum deprivation) or in the presence of 100 ng/ml BDNF, 100 ng/ml BDNF plus 3 nM DPI, 3 nM DPI, 100 ng/ml BDNF plus 100 μM trolox, or 100 μM trolox. Neuronal death was assessed 24 hr and 48 hr later by counting viable neurons.

The subject of test [4] is p47-phox and p67-phox in cortical cell cultures. Description: Immunocytochemistry of p47-phox and p67-phox. As to conditions: 32 hr following exposure. On the procedure:
Immunocytochemistry was performed to identify which types of cells express NADPH oxidase in cortical cell cultures containing neurons and glia.
Cortical cell cultures (DIV 12-14) grown on glass bottom dishes were fixed in 4% paraformaldehyde for 30 min, incubated in 10% horse serum for 1 hr, and double-immunolabeled with a mouse monoclonal antibody against NeuN (1:400 dilution, Chemicon, Temecula, Calif.) and a goat polyclonal antibody against p47-phox or p67-phox (1:200 dilution, Santa Cruz, Santa Cruz, Calif.) for 2-4 hr. Cultures were then reacted with fluorescein isothiocyanate-conjugated anti-goat IgG (1:200 dilution, Organon Teknika Corp., NC) and Texas red-conjugated anti-mouse IgG (1:200, Vector Laboratory, Burlingame, Calif.) for 1-2 hr. The fluorescence images were collected and analyzed with a fluorescence microscopy (Zeiss, Germany) equipped with the Real-14™ precision digital camera (Apogee Instrument, Tucson, Ariz.) and ImagePro Plus Plug-in (Silver Spring, Md.).

Test [5] relates to NADPH oxidase subunits gp91-phox, p47-phox, p67-phox. Description: Western blot of NADPH oxidase subunits. Conditions: over 16-32 hr exposure. How it is done: Western blot experiments were performed to analyze protein levels of NADPH oxidase subunits using available antibodies for gp91-phox, p47-phox, and p67-phox.
Cortical cell cultures were lysed in a lysis buffer containing 50 mM Tris-HCl (pH 7.5), 1% Nonidet P-40, 150 mM NaCl, 0.5% deoxycholic acid, 0.1% sodium dodecyl sulfate (SDS), 1 mM PMSF (phenylmethylsulfonyl fluoride), 10 μg/ml pepstain A, and 100 μg/ml leupeptin. Cell lysates were centrifuged at 12,000 g for 10 min. approximately 25 μg of protein was subjected to electrophoresis on 12% SDS-polyacrylamide gel and transferred to a nitrocellulose membrane. The blot was incubated in 2.5% bovine serum albumin for 1 hr, incubated with goat polyclonal primary antibodies, anti-gp91-phox, anti-p67-phox, or anti-p47-phox antibodies (1:1000, Santa Cruz, Santa Cruz, Calif.), and then reacted with a biotinylated anti-goat secondary antibody. Immunoreactivity was detected with Vectastain ABC kit (Vector Laboratory, Burlingame, Calif., USA) and luminol for enhanced chemiluminescence Intron, Korea). The signal was analyzed by quantitative densitometry using LAS-1000 systems (Fuji Photofilm Co., Japan).

For the substance “BDNF: brain-derived neurotrophic factor, a neurotrophin”, the “mRNA levels of p22-phox and gp91-phox” value in test [1] (4 hr later, lasted over the next 12 hr) was “maximally increased”; in test [1] (within 2 hr after treatment), “increase”. Also, the “mRNA levels of p47-phox subunit” value in test [1] (from 30 min following administration) was “increased gradually”. Further, the “Levels of p47-phox and p67-phox in cytosolic and membrane fraction” value in test [2] was “reduced in the cytosolic fraction and increased in the membrane fraction”. In addition, the “Oxidation of HEt and DCDHF” value in the test with ROS in cortical neurons (100 ng/ml BDNF for 32 hr) is on record as “increased oxidation”. Moreover, in the test on ROS in cortical neurons (exposed for 16 hr), the “Fluorescent intensity of DCF in cortical neurons” value is “increased”. In the test with ROS in cortical neurons (over 24-32 hr), the “Intraneuronal levels of ROS ([ROS]i)” value is “further increased”. Moreover, the “Protective effects of BDNF following serum deprivation” value in test [3] (100 ng/ml, within 48 hrs) was “disappeared”. Moreover, the Neuronal apoptosis entry in test [3] (serum deprivation, 100 ng/ml BDNF) is “prevented neuronal apoptosis”. For the same substance, in test [4], the “Signals of p47-phox and p67-phox (immunoreactivity)” value is listed as “increased exclusively in neurons”. Further, the “Protein levels of NADPH oxidase subunits gp91-phox, p47-phox, and p67-phox” value in test [5] was “increased”.

(Values after patent US7608585B2, “Compositions for inhibition of necrosis induced by a neurotrophin” (Neurotech Pharmaceuticals Co., Ltd., priority 2004, dated 2009).)
